From PubChem BioAssay AID256 (DTP/NCI, 2004)
Where “and” joins values, the source holds several entries; their conditions need not be identical. Identical values can stand only once. Inconclusive results and toxic doses are left out.

Test system: CD2F1 mice, L1210 leukemia ip, survival T/C
Experiment: NCI In Vivo Anticancer Drug Screen. Data for tumor model L1210 Leukemia (intraperitoneal) in CD2F1 (CDF1) mice
Details: higher = longer survival
Outline: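 Transplantable tumor in mice; compound-treated vs vehicle-treated groups. Read-out = treated/control ratio of the measured endpoint.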

[1] = endpoint: mean survival time, dose: 25.0 mg/kg/injection, schedule: Q01DX009 (ip), vehicle: saline
[2] = endpoint: mean survival time, dose: 50.0 mg/kg/injection, schedule: Q01DX009 (ip), vehicle: saline
[3] = endpoint: mean survival time, dose: 100.0 mg/kg/injection, schedule: Q01DX009 (ip), vehicle: saline

## Nc1nc(F)nc2c1ncn2C1OC(COP(=O)(O)O)C(O)C1O (stereo not drawn)
endpoint: mean survival time, dose: 6.25 mg/kg/injection, schedule: Q01DX009 (ip), vehicle: saline
  T/C: 98 % of control
endpoint: mean survival time, dose: 12.5 mg/kg/injection, schedule: Q01DX009 (ip), vehicle: saline
  T/C: 104 % of control
[1]
  T/C: 118 % of control
[2]
  T/C: 114 % of control
endpoint: mean survival time, dose: 60.0 mg/kg/injection, schedule: Q01DX009 (ip), vehicle: saline
  T/C: 124 % of control
endpoint: mean survival time, dose: 88.98 mg/kg/injection, schedule: Q01DX009 (ip), vehicle: saline with Tween-80
  T/C: 174 % of control
endpoint: mean survival time, dose: 90.0 mg/kg/injection, schedule: Q01DX009 (ip), vehicle: saline
  T/C: 182 % of control
[3]
  T/C: 171 % of control
endpoint: mean survival time, dose: 133.0 mg/kg/injection, schedule: Q01DX009 (ip), vehicle: saline
  T/C: 183 % of control
endpoint: mean survival time, dose: 133.4 mg/kg/injection, schedule: Q01DX009 (ip), vehicle: saline with Tween-80
  T/C: 244 % of control
endpoint: mean survival time, dose: 133.4 mg/kg/injection, schedule: Q01DX009 (ip), vehicle: saline
  T/C: 180 % of control
endpoint: mean survival time, dose: 135.0 mg/kg/injection, schedule: Q01DX009 (ip), vehicle: saline
  T/C: 288 % of control and 156 % of control
endpoint: mean survival time, dose: 200.0 mg/kg/injection, schedule: Q01DX009 (ip), vehicle: saline with Tween-80
  T/C: 100 % of control
endpoint: mean survival time, dose: 200.0 mg/kg/injection, schedule: Q01DX009 (ip), vehicle: saline
  T/C: 231 % of control [middle of 4 runs]
endpoint: mean survival time, dose: 219.0 mg/kg/injection, schedule: Q01DX009 (ip), vehicle: saline
  T/C: 362 % of control
endpoint: mean survival time, dose: 292.0 mg/kg/injection, schedule: Q01DX009 (ip), vehicle: saline
  T/C: 98 % of control
endpoint: median survival time, dose: 32.0 mg/kg/injection, schedule: Q01DX009 (ip), vehicle: saline
  T/C: 114 % of control and 112 % of control
endpoint: median survival time, dose: 40.0 mg/kg/injection, schedule: Q03HX024 (ip), vehicle: sodium bicarbonate
  T/C: 167 % of control
endpoint: median survival time, dose: 47.0 mg/kg/injection, schedule: Q01DX009 (ip), vehicle: saline
  T/C: 114 % of control and 111 % of control
endpoint: median survival time, dose: 56.0 mg/kg/injection, schedule: Q03HX024 (ip), vehicle: sodium bicarbonate
  T/C: 193 % of control
endpoint: median survival time, dose: 85.0 mg/kg/injection, schedule: Q03HX024 (ip), vehicle: sodium bicarbonate
  T/C: 168 % of control
endpoint: median survival time, dose: 90.0 mg/kg/injection, schedule: Q01DX009 (ip), vehicle: saline
  T/C: 169 % of control and 185 % of control
endpoint: median survival time, dose: 98.8 mg/kg/injection, schedule: Q01DX009 (ip), vehicle: saline
  T/C: 178 % of control
endpoint: median survival time, dose: 100.0 mg/kg/injection, schedule: Q01DX001 (oral), vehicle: sodium bicarbonate
  T/C: 101 % of control
endpoint: median survival time, dose: 100.0 mg/kg/injection, schedule: Q01DX005 (oral), vehicle: sodium bicarbonate
  T/C: 111 % of control
endpoint: median survival time, dose: 105.0 mg/kg/injection, schedule: Q01DX009 (ip), vehicle: saline
  T/C: 172 % of control
endpoint: median survival time, dose: 110.0 mg/kg/injection, schedule: Q03HX008 (ip), vehicle: sodium bicarbonate
  T/C: 163 % of control
endpoint: median survival time, dose: 111.0 mg/kg/injection, schedule: Q01DX009 (ip), vehicle: saline
  T/C: 159 % of control
endpoint: median survival time, dose: 118.0 mg/kg/injection, schedule: Q01DX005 (ip), vehicle: sodium bicarbonate
  T/C: 175 % of control
endpoint: median survival time, dose: 125.0 mg/kg/injection, schedule: Q03HX024 (ip), vehicle: sodium bicarbonate
  T/C: 625 % of control
endpoint: median survival time, dose: 134.0 mg/kg/injection, schedule: Q01DX009 (ip), vehicle: saline
  T/C: 196 % of control and 202 % of control
endpoint: median survival time, dose: 148.0 mg/kg/injection, schedule: Q01DX009 (ip), vehicle: saline
  T/C: 235 % of control
endpoint: median survival time, dose: 157.0 mg/kg/injection, schedule: Q01DX009 (ip), vehicle: saline
  T/C: 182 % of control and 283 % of control
endpoint: median survival time, dose: 167.0 mg/kg/injection, schedule: Q01DX009 (ip), vehicle: saline
  T/C: 207 % of control
endpoint: median survival time, dose: 170.0 mg/kg/injection, schedule: Q03HX008 (ip), vehicle: sodium bicarbonate
  T/C: 190 % of control
endpoint: median survival time, dose: 175.0 mg/kg/injection, schedule: Q01DX009 (ip), vehicle: saline
  T/C: 207 % of control
endpoint: median survival time, dose: 177.0 mg/kg/injection, schedule: Q01DX005 (ip), vehicle: sodium bicarbonate
  T/C: 216 % of control
endpoint: median survival time, dose: 177.0 mg/kg/injection, schedule: Q01DX005 (iv), vehicle: sodium bicarbonate
  T/C: 171 % of control
endpoint: median survival time, dose: 200.0 mg/kg/injection, schedule: Q01DX001 (oral), vehicle: sodium bicarbonate
  T/C: 97 % of control
endpoint: median survival time, dose: 200.0 mg/kg/injection, schedule: Q01DX009 (ip), vehicle: saline
  T/C: 219 % of control and 198 % of control
endpoint: median survival time, dose: 200.0 mg/kg/injection, schedule: Q04DX003 (ip), vehicle: sodium bicarbonate
  T/C: 152 % of control
endpoint: median survival time, dose: 222.0 mg/kg/injection, schedule: Q01DX009 (ip), vehicle: saline
  T/C: 297 % of control
endpoint: median survival time, dose: 225.0 mg/kg/injection, schedule: Q01DX009 (ip), vehicle: saline
  T/C: 304 % of control
endpoint: median survival time, dose: 234.0 mg/kg/injection, schedule: Q01DX009 (ip), vehicle: saline
  T/C: 296 % of control
endpoint: median survival time, dose: 250.0 mg/kg/injection, schedule: Q01DX009 (ip), vehicle: saline
  T/C: 197 % of control and 284 % of control
endpoint: median survival time, dose: 250.0 mg/kg/injection, schedule: Q03HX008 (ip), vehicle: sodium bicarbonate
  T/C: 198 % of control
endpoint: median survival time, dose: 266.0 mg/kg/injection, schedule: Q01DX001 (ip), vehicle: sodium bicarbonate
  T/C: 115 % of control
endpoint: median survival time, dose: 266.0 mg/kg/injection, schedule: Q01DX005 (ip), vehicle: sodium bicarbonate
  T/C: 222 % of control
endpoint: median survival time, dose: 266.0 mg/kg/injection, schedule: Q01DX005 (iv), vehicle: sodium bicarbonate
  T/C: 195 % of control
endpoint: median survival time, dose: 300.0 mg/kg/injection, schedule: Q04DX003 (ip), vehicle: sodium bicarbonate
  T/C: 166 % of control
endpoint: median survival time, dose: 375.0 mg/kg/injection, schedule: Q01DX009 (ip), vehicle: saline
  T/C: 151 % of control
endpoint: median survival time, dose: 400.0 mg/kg/injection, schedule: Q01DX001 (iv), vehicle: sodium bicarbonate
  T/C: 120 % of control
endpoint: median survival time, dose: 400.0 mg/kg/injection, schedule: Q01DX001 (oral), vehicle: sodium bicarbonate
  T/C: 100 % of control
endpoint: median survival time, dose: 400.0 mg/kg/injection, schedule: Q01DX005 (iv), vehicle: sodium bicarbonate
  T/C: 91 % of control
endpoint: median survival time, dose: 450.0 mg/kg/injection, schedule: Q04DX003 (ip), vehicle: sodium bicarbonate
  T/C: 212 % of control
endpoint: median survival time, dose: 500.0 mg/kg/injection, schedule: Q01DX009 (ip), vehicle: saline
  T/C: 94 % of control
endpoint: median survival time, dose: 670.0 mg/kg/injection, schedule: Q04DX003 (ip), vehicle: sodium bicarbonate
  T/C: 222 % of control
endpoint: median survival time, dose: 800.0 mg/kg/injection, schedule: Q01DX001 (oral), vehicle: sodium bicarbonate
  T/C: 103 % of control
endpoint: median survival time, dose: 800.0 mg/kg/injection, schedule: Q01DX005 (oral), vehicle: sodium bicarbonate
  T/C: 150 % of control
endpoint: median survival time, dose: 1600.0 mg/kg/injection, schedule: Q01DX001 (oral), vehicle: sodium bicarbonate
  T/C: 113 % of control
endpoint: median survival time, dose: 1600.0 mg/kg/injection, schedule: Q01DX005 (oral), vehicle: sodium bicarbonate
  T/C: 175 % of control

## [O-][n+]1onc2ccc(Cl)cc21
endpoint: mean survival time, dose: 100.0 mg/kg/injection, schedule: Q04DX003 (ip), vehicle: Klucel (hydroxypropylcellulose) (HPC)
  T/C: 102 % of control

## C/C(C(=O)O)=C(\C)c1ccccc1
endpoint: mean survival time, dose: 100.0 mg/kg/injection, schedule: Q04DX002 (ip), vehicle: saline with Tween-80
  T/C: 92 % of control
endpoint: mean survival time, dose: 200.0 mg/kg/injection, schedule: Q04DX002 (ip), vehicle: saline with Tween-80
  T/C: 103 % of control
endpoint: mean survival time, dose: 400.0 mg/kg/injection, schedule: Q04DX002 (ip), vehicle: saline with Tween-80
  T/C: 103 % of control

## c1cnc2c(c1)Nc1cc3ccccc3cc1N2
endpoint: mean survival time, dose: 100.0 mg/kg/injection, schedule: Q04DX002 (ip), vehicle: saline + alcohol
  T/C: 100 % of control
endpoint: mean survival time, dose: 200.0 mg/kg/injection, schedule: Q04DX002 (ip), vehicle: saline + alcohol
  T/C: 89 % of control
endpoint: mean survival time, dose: 400.0 mg/kg/injection, schedule: Q04DX002 (ip), vehicle: saline + alcohol
  T/C: 89 % of control

## CCOC(=S)SSC(=S)OCC
endpoint: mean survival time, dose: 100.0 mg/kg/injection, schedule: Q01DX001 (ip), vehicle: Klucel (hydroxypropylcellulose) (HPC)
  T/C: 92 % of control
endpoint: mean survival time, dose: 200.0 mg/kg/injection, schedule: Q01DX001 (ip), vehicle: Klucel (hydroxypropylcellulose) (HPC)
  T/C: 114 % of control

## CN=NCCO
[1]
  T/C: 104 % of control
[2]
  T/C: 96 % of control
endpoint: mean survival time, dose: 100.0 mg/kg/injection, schedule: Q01DX001 (ip), vehicle: saline
  T/C: 94 % of control
[3]
  T/C: 100 % of control
endpoint: mean survival time, dose: 200.0 mg/kg/injection, schedule: Q01DX001 (ip), vehicle: saline
  T/C: 94 % of control

## Cc1ccc2nc(NC(=O)N(CCCl)N=O)sc2c1
endpoint: mean survival time, dose: 118.0 mg/kg/injection, schedule: Q01DX009 (ip), vehicle: other
  T/C: 197 % of control
endpoint: mean survival time, dose: 177.0 mg/kg/injection, schedule: Q01DX001 (ip), vehicle: other
  T/C: 162 % of control
endpoint: mean survival time, dose: 177.0 mg/kg/injection, schedule: Q01DX009 (ip), vehicle: other
  T/C: 96 % of control
endpoint: mean survival time, dose: 266.0 mg/kg/injection, schedule: Q01DX001 (ip), vehicle: other
  T/C: 154 % of control
endpoint: mean survival time, dose: 266.0 mg/kg/injection, schedule: Q01DX009 (ip), vehicle: other
  T/C: 111 % of control
endpoint: mean survival time, dose: 400.0 mg/kg/injection, schedule: Q01DX001 (ip), vehicle: other
  T/C: 156 % of control
endpoint: mean survival time, dose: 400.0 mg/kg/injection, schedule: Q01DX009 (ip), vehicle: other
  T/C: 88 % of control
endpoint: mean survival time, dose: 600.0 mg/kg/injection, schedule: Q01DX001 (ip), vehicle: other
  T/C: 234 % of control
